For test [1], the system named is mature stage V gametocytes (NF54 strain). The test is described as follows: microbe, parasite or virus in culture. The test is classed as cell-based, Plasmodium falciparum. Conditions: for outcome of primary screen (hit definition): 1.11 µM. As to the method:
(§1) Screening was conducted as previously described. Briefly, mature stage V gametocytes (NF54 strain) were cultured in vitro, then exposed to the explored compounds and filtered thereafter through layers of microspheres (microsphiltration)[25],[28]. Stiffening activity was determined by comparing gametocytemia up and downstream from the microsphere layers after filtration of drug-exposed gametocytes in 384-well plates using a vacuum manifold. Gametocytemia was assessed using DNA (Sybr Green) and erythrocyte membrane (CellMask) staining. Killing effect was assessed by MitoTracker staining. We screened two small libraries, specifically the Pathogen Box from the Medicine for Malaria Venture and the Kinase Inhibitors Box from GSK (400 and 350 compounds, respectively, Fig. 1A, B), and furthermore the larger ReFrame repurposing library (12,805 compounds, Fig. 1C).
(§2) The Pathogen Box library (400 compounds, provided by MMV-Medicine for Malaria Ventures, Geneva, Switzerland), the Kinase Inhibitors Box library (350 compounds, provided by GSK-Glaxo SmithKline DDW Unit, Tres Cantos, Spain), and the ReFrame library (12,805 compounds provided by the California Institute for Biomedical Research-Calibr, La Jolla, CA, USA) were used according to the providers’ instructions. DMSO-solubilized compounds (10 mM stock concentration) were loaded in 384-well plates (Seahorse, cat. no. 201035−100). Two columns were left empty for the controls. For each compound, 5 nL were pre-spotted in a single well to reach a final concentration of 1.11 μM. The final volume for each well was 45 μl. Controls were prepared as follows: 22.5 nL of DMSO were loaded in 16 wells as negative controls (0.05% final concentration); 22.5 nL of NITD609 (provided by MMV, Geneva, Switzerland) 1 mM were loaded in 8 wells (0.5 μM final concentration), 17 nL of Calyculin A (Sigma, cat. no. C5552) […] were loaded in 6 wells (75 nM final concentration) and 225 nL of Gentian Violet (MolPort, cat. no. 002-133-551) 10 mM were loaded in the remaining 2 wells (50 μM final concentration). Plates were prepared in triplicate for the Pathogen Box and sextuplicate for the Kinase Inhibitors Box.
(§3) Plasmodium falciparum NF54 strain parasites (used for screening campaign) were cultured at 4% hematocrit in RBCs from informed blood donors (blood group A) as previously described. Parasites were taken from the -80 °C freezer, then rapidly melt for 1 minute in a 37 °C water bath. A saline solution was gently added to avoid the lysis. Firstly, NaCl dissolved at 12% in distilled water (1/5 of the volume measured in the cryovial) and then NaCl dissolved at 1.6% (9 times the cryovial’s volume). After that, fresh RBCs were added to allow parasites re-growth. Infected RBCs were kept in RPMI medium (Sigma-Aldrich, cat. no. R4130), supplemented with 10% of decomplemented human serum, hypoxanthine 50 mg/l (Sigma-Aldrich, cat. no. H9636). Biobank of Castilla y Leon and Centro de Transfusiones de Madrid as providers of human red blood cell concentrates. The production of gametocytes was induced from a 0.5% ring-stage parasitemia (day 0). Medium was changed daily to induce gametocytes differentiation, as previously described. At day 17, gametocytes were concentrated using a density gradient medium (NycoPrep 1.077, Progen cat. no. 1114550)[27]. Parasitemia was adjusted by FACS (SYBR-Green and MitoTracker double staining, 3–5% targeted). Hematocrit was adjusted to 0.5% by adding fresh RBCs and controlled by manual counting in a Neubauer chamber (Celeromics, cat. no. 717810). Finally, the gametocyte suspension was poured (45 μL/well) into the compound-containing 384-well microplate, then incubated 24 hours both for the screening campaign and the dose-response analysis. Both asexual and sexual stages were cultivated in RPMI 1640 supplemented with 25 mM HEPES, 50 mg/L hypoxanthine, 50 μg/mL gentami-cin, 10% pooled heat-inactivated human serum (A^+).

Test [2] shares this test system. Kind of test: High-throughput screening: killing effect by MitoTracker staining, primary screening at 1.11 µM and dose-response analysis. It is filed as cell-based, Plasmodium falciparum. Particulars: stage V gametocytes NF54, 24 h, dose-response analysis, N/A = not active in dose-response analysis, read-out: Killing IC50. As to the method:
as §1, §2, §3

Setting [3] is: stage V gametocytes NF54, 24 h, dose-response analysis, N/A = not active in dose-response analysis, read-out: Stiffening IC50 (retention).
[4] abbreviates: Plasmodium falciparum, NF54, 24 h, read-out: Stiffening IC50 (retention).
The mark [5] stands for this setting: Plasmodium falciparum, NF54, 24 h.

Usually IC50 stands for the concentration at which inhibition is half-maximal.

As for Oligomycin A, the IC50 in test [1] (read-out: Stiffening IC50 (retention), stage V gametocytes NF54, 24 h, dose-response analysis, N/A = not active in dose-response analysis) turned out to be 0.5 µM. As to `C[CH2][Hg][S]c1ccccc1C(=O)[O-].[Na+]` [Thimerosal], the values for the IC50 in test [1] (setting [3]) and in test [2] were 0.93 µM and 1.5 µM, respectively. For `CC[C@H]1/C=C/C=C/C[C@@H](C)[C@H](O)[C@@](C)(O)C(=O)[C@@H](C)[C@H](O)[C@@H](C)C(=O)[C@@H](C)[C@H](O)[C@@H](C)/C=C/C(=O)O[C@@H]2[C@H](C)[C@H](CC1)O[C@@]1(O[C@@H](C[C@@H](C)O)[C@@H](C)CC1=O)[C@H]2C` [Oligomycin B] the same measures were 1.55 µM and 5.8 µM. For Eseroline the same measures were 2.3 µM and 1.56 µM. Regarding `CCCCCCCCN=c1ccn(CCCCCCCCCCn2ccc(=NCCCCCCCC)cc2)cc1` [Octenidine], the values for the half-maximal inhibitory concentration (IC50) in test [1] (setting [4]) and in test [2] (setting [5]) were 1.82 µM and 1.25 µM, respectively. As for `COC(=O)[C@@]12OC[C@]34[C@H]([C@@H](O)[C@@H]1O)[C@@]1(C)CC(=O)C(O)=C(C)[C@@H]1C[C@H]3OC(=O)[C@H](OC(=O)/C=C(\C)C(C)C)[C@@H]24` [Bruceantin], the IC50 in test [1] (setting [4]) was 0.02 µM; in test [2] (Plasmodium falciparum), 0.16 µM. Turning to `CCCN1CCC(c2ccc(Nc3nc(Nc4cc(F)ccc4C(N)=O)c4cc[nH]c4n3)c(OC)c2)CC1` [GSK1326255A], the IC50 in test [1] (setting [4]) was 0.48 µM; in test [2] (setting [5]), 8.4 µM. Regarding `C/C=C1\NC(=O)[C@H]2CSSCC/C=C/[C@H](CC(=O)N[C@H](C(C)C)C(=O)N2)OC(=O)[C@H](C(C)C)NC1=O` [Romidepsin], the IC50 in test [1] (setting [4]) was found to be 5 µM; in test [2] (Plasmodium falciparum), 20 µM. `CN(C)c1ccc2nc3ccc(=[N+](C)C)cc-3sc2c1` [Methylthioninium chloride]: the IC50 in test [1] (Plasmodium falciparum, NF54, 24 h, read-out: Stiffening IC50 (retention), stage V gametocytes NF54, 24 h, dose-response analysis, N/A = not active in dose-response analysis) turned out to be 2.8 µM; in test [2] (setting [5]), 4.85 µM. Consider `COc1cccc(CC(=O)N2CCC(n3c(C)nc4ccc(F)cc43)CC2)c1` [MMV020081], for which the IC50 is 1.47 µM in test [1] (setting [3]) and 29.3 µM in test [2]. For `O=C([O-])[C@H]([O-])[C@@H]([O-])C(=O)[O-].O=C([O-])[C@H]([O-])[C@@H]([O-])C(=O)[O-].[K+].[K+].[Sb+3].[Sb+3]` [Potassium antimonyl tartrate] the same measures were 10.7 µM and 3.63 µM. On the same counts, the results for `CCCCN(CCCC)c1ccc2nc3ccc(=[N+](CCCC)CCCC)cc-3sc2c1` [PPA904] are 5.05 µM and 2.42 µM. Turning to `CNCc1ccc(-c2cc(-c3nc(-c4ccc(S(=O)(=O)C(C)C)cc4)cnc3N)on2)cc1` [VE-822], the IC50 in test [1] (setting [4]) is 9.5 µM; in test [2] (setting [5]), 0.71 µM.

On to Bismuth ethanedithiol, for which the 50% inhibitory concentration (IC50) amounted to 1.5 µM in test [1] (setting [3]) and 1.3 µM in test [2].

For `CCCCCCCCCCCCCC[n+]1ccc(C)cc1` [Myristyl-gamma picolinium chloride], the IC50 turned out to be 7.2 µM in test [1] (setting [3]) and 4.15 µM in test [2].

As to `CCCN1CCCC(c2ccc(Nc3nc(Nc4cc(F)ccc4C(N)=O)c4cc[nH]c4n3)c(OC)c2)C1` (stereo not drawn) [GSK1173862A], the results for the IC50 in test [1] (setting [4]) and in test [2] (setting [5]) were 0.345 µM and 2.4 µM, respectively. On the same counts, the results for `COc1cc(N2CCN(C(C)C)CC2)ccc1Nc1nc(Nc2ccc(F)cc2C(N)=O)c2cc[nH]c2n1` [GSK1220512A] are 2.31 µM and 17 µM. With `COCCn1c2c([n+](Cc3cnccn3)c1C)C(=O)c1ccccc1C2=O` [Sepantronium bromide], the IC50 stood at 1.89 µM in test [1] (setting [4]) and 1.35 µM in test [2] (setting [5]). As for `C[C@]12CCC(=NOCCN)C[C@@H]1C(=O)C[C@@H]1[C@@H]2CC[C@]2(C)C(=O)CC[C@@H]12` [Istaroxime], the half-inhibitory concentration (IC50) in test [1] (setting [4]) turned out to be 0.17 µM.

`CC(C)C[C@H](NC(=O)[C@H](Cc1ccccc1)NC(=O)c1cnccn1)B(O)O` [Bortezomib]: the 50% inhibitory concentration (IC50) in test [2] (Plasmodium falciparum) was 2.06 µM. As for `CCCc1nn(C)c2c(=O)[nH]c(-c3cc(S(=O)(=O)N4CCN(C)CC4)ccc3OCC)nc12` [sildenafil], the “outcome of primary screen (hit definition)” value in test [1] was “not captured by the primary screen”. Still for that read-out and setting: under `CN1CC(=O)N2[C@H](c3ccc4c(c3)OCO4)c3[nH]c4ccccc4c3C[C@@H]2C1=O` [tadalafil] stands “not captured by the primary screen”.
